This experiment addresses T1, β-secretase (BACE) (Homo sapiens, UniProt P56817).
T1 construct: purchased Panvera
Kind of experiment: BACE FS1 % Inhibition Assay. It is filed as biochemical. On the procedure: The following reagents were used in this assay: sodium acetate, PEG8000 (Sigma), DMSO, HEPES, FS1 substrate [[…]] […] The FS1-substrate stock solution was prepared in DMSO as a 10 mg/mL solution. The FS1-substrate working solution was prepared by diluting the 10 mg/mL stock solution with substrate assay buffer to a final concentration of 300 μg/mL. The β-secretase (BACE) working solution was prepared by diluting a 0.83 mg/mL BACE stock solution with enzyme assay buffer to a final concentration of 4 μg/mL. Test compounds were dissolved in DMSO to 10 mM. […] The screening procedure for this assay was as follows: 15 μL of BACE working solution was pipetted into each well of a 96-well plate. To each well was then pipetted 2 μL of test compound at the selected concentration. Test compound and BACE were then mixed with a pipettor and incubated for 20 min at room temperature. To each well was then added 10 μL of the FS1 substrate working solution. The plates were then incubated for 1 hour at room temperature. […] The procedure for the blank was as follows. 15 μL of assay buffer was pipetted into each well to be used as a blank control. To each well was then added 2 μL of vehicle and 10 μL of FS1-substrate working solution. The plates were then incubated for 1 hour at room temperature. […] The procedure for the positive control was as follows: 15 μL of BACE working solution was pipetted into each well to be used as a positive control. To each well was then pipetted 2 μL of vehicle. Vehicle and BACE were then mixed with a pipettor and incubated for 20 min at room temperature. To each well was then added 10 μL of the FS1 substrate working solution. The plates were then incubated for 1 hour at room temperature. […] For test compounds, % inhibition was determined at each concentration as follows: [formula]

The values below come from patent publication US8426429B2, “2-amino-quinazoline derivatives useful as inhibitors of β-secretase (BACE)” (Jansssen Pharmaceutica N.V., priority 2004, dated 2013).

T1 sequence (P56817 46-501): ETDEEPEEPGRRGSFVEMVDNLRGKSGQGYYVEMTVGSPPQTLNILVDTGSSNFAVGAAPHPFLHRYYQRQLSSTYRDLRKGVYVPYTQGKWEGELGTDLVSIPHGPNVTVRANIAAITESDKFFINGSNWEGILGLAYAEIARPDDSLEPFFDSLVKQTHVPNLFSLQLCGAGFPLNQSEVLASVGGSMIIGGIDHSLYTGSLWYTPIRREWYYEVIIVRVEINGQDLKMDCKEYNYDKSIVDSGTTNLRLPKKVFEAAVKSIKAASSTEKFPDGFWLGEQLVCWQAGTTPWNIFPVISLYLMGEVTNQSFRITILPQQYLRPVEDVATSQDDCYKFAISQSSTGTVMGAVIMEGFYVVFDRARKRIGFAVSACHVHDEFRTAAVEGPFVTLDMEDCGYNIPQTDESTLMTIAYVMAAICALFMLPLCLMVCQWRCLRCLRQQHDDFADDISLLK

As to `C=CCc1cccc(C)c1Oc1ccc2c(c1)CN(Cc1cccc(C(=O)N(C)C3CCCCC3)c1)C(N)=N2` [Compound 480], the “% Inhibition (FS)” value (0.3 μM test compound) is <30%, the “% Inhibition (FS)” value (1 μM test compound) is <30% and the “% Inhibition (FS)” value (3 μM test compound) is 38%.
On to `CC(C)(C)C1CCC(C(=O)NCCN2Cc3cc(Oc4ccccc4)ccc3N=C2N)CC1` (stereo not shown) [Compound 184], for which the “% Inhibition (FS)” value (0.3 μM test compound) is reported as <30%, the “% Inhibition (FS)” value (1 μM test compound) is recorded as <30% and the “% Inhibition (FS)” value (3 μM test compound) turned out to be 31%.
For `NC1=Nc2ccc(-c3cccc(C(F)(F)F)c3)cc2CN1CCNC(=O)CC1CCCC1` [Compound 584], the “% Inhibition (FS)” value is, setting by setting: (0.3 μM test compound) <30%; (1 μM test compound) <30%; (3 μM test compound) 56%.
Turning to `CN(C(=O)c1cccc(CN2Cc3cc(-c4cn[nH]c4)ccc3N=C2N)c1)C1CCCCC1` [Compound 161], the “% Inhibition (FS)” value is on record as <30% (0.3 μM test compound), <30% (1 μM test compound) and <30% (3 μM test compound).
Take `CC(C)CC(=O)NCCN1Cc2cc(Oc3ccccc3)ccc2N=C1N` [Compound 190]: the “% Inhibition (FS)” value reads like this: (0.3 μM test compound) 51%; (1 μM test compound) 86%; (3 μM test compound) 101%.
For `CCCCc1ccc(C(=O)NCCN2Cc3cc(Oc4ccccc4)ccc3N=C2N)cc1` [Compound 157], the “% Inhibition (FS)” value was <30% (3 μM test compound) and 50% (10 μM test compound).
On to `NC1=Nc2ccc(Oc3ccccc3)cc2CN1C(CC(=O)NC1CCCCC1)c1ccccc1` (stereo not shown) [Compound 299], for which the “% Inhibition (FS)” value was <30% (0.3 μM test compound), <30% (1 μM test compound) and <30% (3 μM test compound).
Take `COc1cccc(F)c1-c1ccc2c(c1)CN(CCNC(=O)C1CCOCC1)C(N)=N2` [Compound 699]: the “% Inhibition (FS)” value worked out at 31% (0.3 μM compound, FS1 substrate); 64% (1 μM compound, FS1 substrate); 93% (3 μM compound, FS1 substrate).
For the molecule `CN(C(=O)c1ncoc1CN1Cc2cc(Oc3ccccc3)ccc2N=C1N)C1CCCCC1` [Compound 641], the “% Inhibition (FS)” value was <30% (0.3 μM test compound), <30% (1 μM test compound) and 48% (3 μM test compound).
In the case of `CCOC(=O)C1CCC(N(C)C(=O)CCC(C2CCCCC2)N2Cc3cc(Oc4ccccc4)ccc3N=C2N)CC1` (stereo not shown) [Compound 737], the “% Inhibition (FS)” value (0.3 μM compound, FS1 substrate, 0.3 µM) came out at 22%; the “% Inhibition (FS)” value (1 μM compound, FS1 substrate, 1 µM) stood at 34%; the “% Inhibition (FS)” value (3 μM compound, FS1 substrate, 3 µM) was determined as 97%.
`CSc1ccc(Sc2ccc3c(c2)CN(Cc2cccc(C(=O)N(C)C4CCCCC4)c2)C(N)=N3)cc1` [Compound 413]: the “% Inhibition (FS)” value is given as <30% (0.3 μM test compound), <30% (1 μM test compound) and 53% (3 μM test compound).
As to `NC1=Nc2ccc(Oc3ccccc3)cc2CN1CCCNC1CCCCC1` [Compound 403], the “% Inhibition (FS)” value is on record as <30% (0.3 μM test compound), <30% (1 μM test compound) and 66% (3 μM test compound).
In the case of `Cc1cc(C(=O)NCCN2Cc3cc(-c4ccccc4)ccc3N=C2N)c(C)o1` [Compound 586], the “% Inhibition (FS)” value is, setting by setting: (0.3 μM test compound) <30%; (1 μM test compound) <30%; (3 μM test compound) 59%.
Regarding `COc1ccc(C)cc1-c1ccc2c(c1)CN(CCNC(=O)C1CCCCC1)C(N)=N2` [Compound 630], the “% Inhibition (FS)” value (0.3 μM test compound) is <30%, the “% Inhibition (FS)” value (1 μM test compound) was <30% and the “% Inhibition (FS)” value (3 μM test compound) is reported as 48%.
With `CC(C)(C)C(=O)NCCN1Cc2cc(-c3ccncc3)ccc2N=C1N` [Compound 573], the “% Inhibition (FS)” value runs as follows: (0.3 μM test compound) <30%; (1 μM test compound) <30%; (3 μM test compound) <30%.
Consider `CN(Cc1cccc(CC(=O)O)c1)C(=O)CCC(C1CCCCC1)N1Cc2cc(Oc3ccccc3)ccc2N=C1N` (stereo not shown) [Compound 778], for which the “% Inhibition (FS)” value (0.3 μM compound, FS1 substrate) is <30% and the “% Inhibition (FS)” value (1 μM compound, FS1 substrate) is on record as 77%.
On to `NC1=Nc2ccc(-c3cccc(C(F)(F)F)c3)cc2CN1CCNC(=O)Cc1ccccc1` [Compound 600], for which the “% Inhibition (FS)” value was <30% (0.3 μM test compound), <30% (1 μM test compound) and 41% (3 μM test compound).
As to `Cc1ccccc1-c1ccc2c(c1)CN(CCNC(=O)C1CCC1)C(N)=N2` [Compound 656], the “% Inhibition (FS)” value by setting is: (0.3 μM test compound) 56%; (1 μM test compound) 87%; (3 μM test compound) 104%.
